# Test results from EPA's ToxValDB 9.5.
# Where “and” joins values, the source holds several entries; their conditions need not be identical. Equal values may be shown once.
# Key:
# Rattus norvegicus [1] = settings: oral; for NOEL: gavage
# Rattus norvegicus [2] = settings: for LC50 / LD50: acute
# Oryctolagus sp. = settings: for LD50: acute; for LOAEL: Dutch-belted
# Rattus norvegicus [3] = settings: chronic, duration: 2 years, oral, diet, M/F
# Rattus norvegicus [4] = settings: oral
# Rattus norvegicus [5] = settings: oral; remark: listed apart in the source
# [6] = reproduction developmental, oral, gavage, Sprague-Dawley, generation: F1
# [7] = chronic, duration: 6 months, inhalation, Sprague-Dawley
# [8] = reduced body weight gain and food consumption
# [9] = subchronic, duration: 13 weeks, oral, gavage, Sprague-Dawley
# [10] = reduced body weight (males), liver cell vacuolation, cholinesterase inhibition
# [11] = Hershberger, duration: 10 days, gavage, Sprague-Dawley, active + Negative + Antiandrogenic + anti-androgenic + negative
# [12] = short-term, duration: 14 days, oral, gavage, F, Fischer 344
# [13] = short-term, duration: 14 days, oral, gavage, M, Fischer 344
# [14] = subchronic, duration: 13 weeks, inhalation, F, Fischer 344
# [15] = subchronic, duration: 13 weeks, inhalation, Fischer 344
# [16] = subchronic, duration: 13 weeks, oral, gavage, F, Fischer 344
# [17] = subchronic, duration: 13 weeks, oral, gavage, Fischer 344
compound,measurement,setting,value
C1=CC2C3C=CC(C3)C2C1 (stereo unspecified) [Dicyclopentadiene],NOEL,"Rattus norvegicus [1]; short-term, duration: 28 days, M/F, Fischer 344, Deaths + Clinical Observation: Salivation + Body Weight Changes: Weight gain decrease + Food Consumption: decrease + Blood Chemistry: GPT …",8 mg/kg-day
same,NOAEL,"Rattus norvegicus [2]; developmental, duration: 10 days, oral, diet, Sprague-Dawley",750 ppm
same,NOAEL,"Rattus norvegicus [2]; developmental, duration: 10 days, oral, gavage, Sprague-Dawley",50 mg/kg-day
same,NOAEL,"Rattus norvegicus [2]; reproduction developmental, duration: 10 days, oral, diet, F, Sprague-Dawley",750 ppm
same,NOAEL,"Rattus norvegicus [2]; reproduction developmental, oral, diet, Sprague-Dawley, generation: F0",750 ppm
same,NOAEL,"Rattus norvegicus [2]; reproduction developmental, oral, diet, Sprague-Dawley, generation: F1",750 ppm
same,NOAEL,"Rattus norvegicus [2]; reproduction developmental, oral, diet, Sprague-Dawley, generation: F2",750 ppm
same,NOAEL,"Rattus norvegicus [2]; reproduction developmental, oral, gavage, F, Sprague-Dawley",20 mg/kg-day
same,NOAEL,"Rattus norvegicus [2]; reproduction developmental, oral, gavage, M, Sprague-Dawley",100 mg/kg-day
same,NOAEL,Rattus norvegicus [2]; [6],20 mg/kg-day
same,NOAEL,"Oryctolagus sp.; reproduction developmental, duration: 14 days, oral, gavage, F, New Zealand",25 mg/kg-day
CCCCC(CC)CO[N+](=O)[O-] (stereo unspecified) [2-Ethylhexyl nitrate],NOAEL,"Rattus norvegicus [2]; reproduction developmental, oral, gavage, Sprague-Dawley, generation: F0",20 mg/kg-day
same,NOAEL,Rattus norvegicus [2]; [6],100 mg/kg-day
same,NOAEL,"Rattus norvegicus [2]; short-term, duration: 14 days, inhalation, Sprague-Dawley",301 mg/m3
same,NOAEL,"Rattus norvegicus [2]; short-term, duration: 28 days, oral, gavage, Sprague-Dawley",20 mg/kg-day
same,NOAEL,"Oryctolagus sp.; short-term, duration: 15 days, dermal, semiocclusive, Albino",> 500 mg/kg-day
Cc1ccccn1 [2-Methylpyridine],LC50,Rattus norvegicus [2]; inhalation,≥ 7620 mg/m3 and ≤ 15200 mg/m3
same,LC50,"Rattus norvegicus [2]; inhalation, Sprague-Dawley",< 13200 mg/m3
same,LD50,"Rattus norvegicus [2]; oral, gavage, Sprague-Dawley",810 mg/kg and > 950 mg/kg
same,LOAEL,Rattus norvegicus [2]; [7],> 381 mg/m3
same,NOAEL,Rattus norvegicus [2]; [7],≥ 381 mg/m3
same,LD50,Oryctolagus sp.; dermal,≥ 252 mg/kg and ≤ 500 mg/kg
same,LD50,"Oryctolagus sp.; dermal, occlusive, New Zealand",≥ 200 mg/kg and ≤ 316 mg/kg
CNC(=O)ON=C(SC)C(=O)N(C)C [Oxamyl],LEL,Rattus norvegicus [3]; [8],5 mg/kg-day
same,NOEL,Rattus norvegicus [3]; [8],2.5 mg/kg-day
same,NOEL,"Rattus norvegicus [4]; Hershberger, duration: 10 days, gavage, Sprague-Dawley, inactive + Negative + Negative + neither + negative",0.5 mg/kg-day
CN1C(=O)c2ccc([N+](=O)[O-])cc2C1=O [N-Methyl-4-nitrophthalimide],LD50,"Rattus norvegicus [2]; inhalation, whole body, Sprague-Dawley",> 36 mg/L
same,LD50,"Rattus norvegicus [2]; oral, gavage, Sprague-Dawley",2800 mg/kg
same,NOAEL,"Rattus norvegicus [2]; developmental, duration: 9 days, oral, gavage, Sprague-Dawley",50 mg/kg-day
same,NOAEL,"Rattus norvegicus [2]; reproduction developmental, duration: 4 weeks, oral, gavage, Sprague-Dawley",> 25 mg/kg-day
same,NOAEL,"Rattus norvegicus [2]; reproduction developmental, duration: 4 weeks, oral, gavage, Sprague-Dawley, generation: F0",2.5 mg/kg-day
same,NOAEL,"Rattus norvegicus [2]; reproduction developmental, duration: 4 weeks, oral, gavage, Sprague-Dawley, generation: F1",> 25 mg/kg-day
same,NOAEL,"Rattus norvegicus [2]; reproduction developmental, duration: 9 days, oral, gavage, F, Sprague-Dawley",10 mg/kg-day
same,LOAEL,Rattus norvegicus [2]; [9],10 mg/kg-day
same,NOAEL,Rattus norvegicus [2]; [9],1 mg/kg-day
same,LD50,"Oryctolagus sp.; dermal, New Zealand",> 2000 mg/kg
same,NOAEL,"Oryctolagus sp.; developmental, duration: 13 days, oral, gavage, New Zealand",50 mg/kg-day
same,NOAEL,"Oryctolagus sp.; reproduction developmental, duration: 13 days, oral, gavage, F, New Zealand",50 mg/kg-day
COP(=S)(OC)SCN1C(=O)c2ccccc2C1=O [Phosmet],LEL,Rattus norvegicus [3]; [10],20 mg/kg-day
same,NOEL,Rattus norvegicus [3]; [10],2 mg/kg-day
same,LOEL,Rattus norvegicus [4]; [11],25 mg/kg-day
same,NOEL,Rattus norvegicus [4]; [11],20 mg/kg-day and 15 mg/kg-day
CCc1ccc(C)cc1 [4-Ethyltoluene],LC50,"Rattus norvegicus [2]; inhalation, Sprague-Dawley",> 19200 mg/m3
same,LD50,"Rattus norvegicus [2]; oral, gavage, Sprague-Dawley",4850 mg/kg
same,NOAEL,"Rattus norvegicus [2]; developmental, duration: 20 days, oral, gavage",> 200 mg/kg-day
same,LOAEL,Rattus norvegicus [2]; [12],400 mg/kg-day
same,NOAEL,Rattus norvegicus [2]; [12],200 mg/kg-day
same,LOAEL,Rattus norvegicus [2]; [13],400 mg/kg-day
same,NOAEL,Rattus norvegicus [2]; [13],200 mg/kg-day
same,LOAEL,Rattus norvegicus [2]; [14],4810 mg/m3
same,NOAEL,Rattus norvegicus [2]; [14],1500 mg/m3
same,LOAEL,Rattus norvegicus [2]; [15],4810 mg/m3
same,NOAEL,Rattus norvegicus [2]; [15],1500 mg/m3
same,LOAEL,Rattus norvegicus [2]; [16],300 mg/kg-day
same,NOAEL,Rattus norvegicus [2]; [16],100 mg/kg-day
same,LOAEL,Rattus norvegicus [2]; [17],300 mg/kg-day
same,NOAEL,Rattus norvegicus [2]; [17],100 mg/kg-day
same,LD50,"Oryctolagus sp.; dermal, occlusive, New Zealand",> 5000 mg/kg
same,LOAEL,"Oryctolagus sp.; developmental, oral, gavage",> 200 mg/kg-day
same,LOAEL,"Oryctolagus sp.; reproduction developmental, oral, gavage, F",250 mg/kg-day
CCCCCCCC=O [Octanal],LD50,"Oryctolagus sp.; dermal, occlusive, New Zealand",5210 mg/kg
"ClC1C(Cl)C(Cl)C(Cl)C(Cl)C1Cl (stereo not drawn) [alpha-1,2,3,4,5,6-Hexachlorocyclohexane]",NOAEL,"Rattus norvegicus [5]; chronic, duration: 107 weeks, diet, M/F, Wistar, hepatic",0.9 mg/kg-day
same,NOAEL,"Rattus norvegicus [5]; short-term, duration: 28 days, gavage, M, Fischer 344, hepatic",2 mg/kg-day
"Nc1ccc(Cc2ccc(N)cc2)cc1 [4,4'-Diaminobiphenyl methane]",LOAEL,"Rattus norvegicus [5]; acute, duration: 1 days, gavage, M, Sprague-Dawley, hepatic",25 mg/kg-day
same,NOAEL,"Rattus norvegicus [5]; subchronic, duration: 12 weeks, gavage, M/F, Wistar, hepatic",8.3 mg/kg-day
same,NOAEL,"Rattus norvegicus [1]; subchronic, duration: 90 days, drinking water, M/F, Tif / RAlf, Deaths + Body Weight Changes: Weight gain + Food Consumption: decrease + Water Consumption: decrease + Hematology: RBC decrease, HGB …",< 12.2 mg/kg-day
CCCCCCCCC=O [Nonanal],LD50,"Rattus norvegicus [2]; oral, gavage, Wistar",> 5000 mg/kg
same,LD50,"Oryctolagus sp.; dermal, albino",> 5000 mg/kg
Brc1ccccc1-c1c(Br)c(Br)c(Br)c(Br)c1Br [Hexabromobiphenyl],NOAEL,"Rattus norvegicus [5]; short-term, duration: 10 days, gavage, M, Sprague-Dawley, endocrine",1 mg/kg-day
CC(C)Oc1ccc2c(=O)c(-c3ccccc3)coc2c1 [Ipriflavone],NOEL,"Rattus norvegicus [1]; subchronic, duration: 35 days, Sprague-Dawley",> 3000 mg/kg-day
same,LEL,"Rattus norvegicus [4]; uterotrophic, duration: 3 days, Active",200 mg/day
